Reference: patent US9284292B2, “Sialochimeric compounds” (THERAPICON S.R.L., priority 2009, dated 2016)

Test system: influenza virus A/H1N1(H275Y) (A/Parma/38/2008)
Type: cell-based, influenza virus type A

CCOC(=O)C1=CC(OC(CC)CC)C(NC(C)=O)C(NC2(C(=O)O)CC(O)C(NC(C)=O)C(CNC34CC5CC(CC(C5)C3)C4)O2)C1 (centres unmarked) [THE 08/01, Amantadine-C7-Neu5Ac—C16H28N2O4]
EC50: 14.5 µM
antiviral activity in vitro versus influenza virus A/H1N1(H275Y): comparable to that determined versus A/H1N1
